Each structure is given as a SMILES string. Read-outs that look alike come from different tables or passages of the source.

Test [1] deals with BT474. Nature of the test: Cytotoxicity assay (SRB), BT474. It is filed as cell-based. A digest of the protocol: (§1)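 Growth inhibition, SRB method: 3-day continuous compound exposure for HCT-116, LoVo and MCF-7 and 6-day exposure for BT474. Absorbance at 540 nm reflects surviving cell protein relative to controls.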
Test [2] concerns the target T1, cyclin E/CDK2 enzyme (Homo sapiens, UniProt P24941).
T1 construct: made in house; host or cells: Sf9 insect cells, recombinant baculovirus
Nature of the test: CDK2 ELISA kinase assay (phospho-Rb ser 795 detection). The format is biochemical. Conditions: In Vitro Enzyme Assays, read-out: CDK2 IC50. In a few lines: (§2)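 GST-Rb C-terminal fragment coated on plates; partially purified Sf9-expressed cyclin D1/CDK4, cyclin E/CDK2 or cyclin B/CDK1 with 200 μM ATP, pH 7.5 HEPES/MgCl2 buffer, 1 h at 30 °C; screen compound final 10 μg/ml. Phospho-Rb Ser795 detected by antibody ELISA (TMB, A450); % of control, IC50 from background-subtracted inhibition curves.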

Test [3] has as its system MCF-7. Nature of the test: Cytotoxicity assay (SRB), MCF-7. The format is cell-based. Conditions: Homo sapiens, MCF7, 72 h, MCF-7 cells, SRB, read-out: In Vitro Cellular Activity IC50 MCF-7. In a few lines: as §1
For test [4], the target named is T2, cyclin D1/cdk 4 enzyme (Homo sapiens, UniProt P11802).
T2 construct: made in house; host or cells: Sf9 insect cells, recombinant baculovirus
Put plainly: CDK4 ELISA kinase assay (phospho-Rb ser 795 detection). Particulars: In Vitro Enzyme Assays, 200 μM ATP, read-out: CDK4 IC50. It is filed as biochemical. A digest of the protocol: as §2

Test [5] concerns the target T3, cyclin B/CDK1 enzyme (Homo sapiens, UniProt P06493).
T3 construct: purchased New England BioLabs; host or cells: Sf9 insect cells, recombinant baculovirus
Put plainly: CDK1 ELISA kinase assay (phospho-Rb ser 795 detection). It is filed as biochemical. Particulars: In Vitro Enzyme Assays, read-out: CDK1 IC50. In a few lines:
as §2

Test [6] relates to HCT-116. Put plainly: Cytotoxicity assay (SRB), HCT-116. Conditions: Homo sapiens, HCT-116, 72 h, HCT116 cells, SRB, read-out: In Vitro Cellular Activity IC50 HCT116. It is filed as cell-based. A digest of the protocol:
as §1

Test [7] concerns LoVo. Nature of the test: Cytotoxicity assay (SRB), LoVo. It is filed as cell-based. Conditions: Homo sapiens, LoVo, 72 h, LoVo cells, SRB, read-out: In Vitro Cellular Activity IC50 LOVO. In a few lines:
as §1

Where [8] appears, read: Homo sapiens, BT-474, 144 h, BT474 cells, SRB, 6 days; read-out: In Vitro Cellular Activity IC50 BT474.
[9] abbreviates: Homo sapiens, BT-474, 144 h, BT474 cells, 6 days, SRB; read-out: In Vitro Cellular Activity IC50 BT474.

T3 sequence (P06493 whole entry): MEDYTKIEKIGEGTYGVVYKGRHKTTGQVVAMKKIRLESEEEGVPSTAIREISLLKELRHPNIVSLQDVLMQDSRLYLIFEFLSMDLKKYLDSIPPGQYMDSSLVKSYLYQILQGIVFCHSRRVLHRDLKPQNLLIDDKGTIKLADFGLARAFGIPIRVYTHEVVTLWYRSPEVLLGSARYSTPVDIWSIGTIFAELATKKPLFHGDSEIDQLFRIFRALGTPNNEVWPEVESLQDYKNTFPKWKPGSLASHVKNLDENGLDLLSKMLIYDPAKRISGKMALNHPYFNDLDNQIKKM
T3 sequence (P14635 whole entry partner): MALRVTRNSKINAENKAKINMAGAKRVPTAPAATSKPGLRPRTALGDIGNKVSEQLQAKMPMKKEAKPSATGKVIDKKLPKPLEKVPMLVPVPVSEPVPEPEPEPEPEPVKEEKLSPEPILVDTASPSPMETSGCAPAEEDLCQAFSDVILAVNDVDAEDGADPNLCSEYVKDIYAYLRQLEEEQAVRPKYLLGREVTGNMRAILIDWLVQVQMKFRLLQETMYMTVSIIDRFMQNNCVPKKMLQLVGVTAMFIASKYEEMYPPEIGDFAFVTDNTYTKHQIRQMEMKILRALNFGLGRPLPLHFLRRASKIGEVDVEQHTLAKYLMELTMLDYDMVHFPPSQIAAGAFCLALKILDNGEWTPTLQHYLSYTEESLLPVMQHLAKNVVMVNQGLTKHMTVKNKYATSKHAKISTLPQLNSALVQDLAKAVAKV
T2 sequence (P11802 whole entry, species assumed): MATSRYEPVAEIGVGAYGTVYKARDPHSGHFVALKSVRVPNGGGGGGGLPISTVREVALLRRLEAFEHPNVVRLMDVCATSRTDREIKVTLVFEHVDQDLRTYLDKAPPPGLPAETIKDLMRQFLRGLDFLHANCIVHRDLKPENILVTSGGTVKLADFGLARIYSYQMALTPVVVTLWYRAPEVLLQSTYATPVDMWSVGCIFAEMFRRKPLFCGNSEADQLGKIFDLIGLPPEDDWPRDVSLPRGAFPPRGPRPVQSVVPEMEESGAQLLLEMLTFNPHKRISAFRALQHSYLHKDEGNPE
T2 sequence (P24385 whole entry partner, species assumed): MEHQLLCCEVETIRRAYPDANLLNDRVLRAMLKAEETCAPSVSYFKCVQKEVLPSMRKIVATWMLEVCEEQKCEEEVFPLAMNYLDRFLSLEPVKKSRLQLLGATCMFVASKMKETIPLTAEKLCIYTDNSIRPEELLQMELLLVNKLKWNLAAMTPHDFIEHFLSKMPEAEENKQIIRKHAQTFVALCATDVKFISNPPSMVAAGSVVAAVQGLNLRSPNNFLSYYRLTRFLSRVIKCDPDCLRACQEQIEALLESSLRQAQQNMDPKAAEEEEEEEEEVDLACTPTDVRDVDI

For the compound `C=CC(=O)Nc1ccc2c(c1)/C(=C/Nc1ccc(N3CCN(C)CC3)cc1)C(=O)NC2=O` [Example 385, N-[(4Z)-4-({[4-(4-Methylpiperazin-1-yl)phenyl]amino}methylene)-1,3-dioxo-1,2,3,4-tetrahydroisoquinolin-6-yl]acrylamide], the IC50 worked out at 0.39 µM in test [1] (setting [8]); 20.7 µM in test [2]; 1.6 µM in test [3] (three days); 14.7 µM in test [4]; 11.5 µM in test [5]; 1.4 µM in test [6] (three days). The IC50 in test [7] (three days) amounted to 3.5 µM.

`CC(C)N1CCN(c2ccc(N/C=C3\C(=O)NC(=O)c4ccc(I)cc43)cc2)CC1` [Example 386, (4Z)-6-Iodo-4-({[4-(4-isopropylpiperazin-1-yl)phenyl]amino}methylene)isoquinoline-1,3(2H,4H)-dione]: the IC50 in test [1] (setting [8]) is 7 µM; in test [2] it was > 50 µM; in test [3] (three days) it was 2.2 µM; in test [4], 0.6 µM; in test [5], > 50 µM; in test [6] (three days), 2.6 µM. Also, the IC50 in test [7] (three days) came to 6.5 µM.

Take `CN1CCC(N2CCN(c3ccc(N/C=C4\C(=O)NC(=O)c5ccc(I)cc54)cc3)CC2)CC1` [Example 387, (4Z)-6-Iodo-4-[({4-[4-(1-methylpiperidin-4-yl)piperazin-1-yl]phenyl}amino)methylene]isoquinoline-1,3(2H,4H)-dione]: the IC50 in test [1] (setting [8]) is 25 µM; in test [2], > 50 µM; in test [3] (three days) it was 24 µM; in test [4] it was 0.9 µM; in test [5] it was > 50 µM; in test [6] (three days), 7.7 µM. In addition, the IC50 in test [7] (three days) is 33 µM.

Turning to `CCCN1CCN(c2ccc(N/C=C3\C(=O)NC(=O)c4ccc(I)cc43)cc2)CC1` [Example 388, (4Z)-6-Iodo-4-({[4-(4-propylpiperazin-1-yl)phenyl]amino}methylene)isoquinoline-1,3(2H,4H)-dione], the IC50 was 3.9 µM in test [1] (setting [8]); > 50 µM in test [2]; 3.1 µM in test [3] (three days); 2 µM in test [4]; > 50 µM in test [5]; 2.7 µM in test [6] (three days). In addition, in test [7] (three days), the IC50 was 5.5 µM.

Turning to `O=C1NC(=O)c2ccc(I)cc2/C1=C/Nc1ccc(N2CCN(Cc3ccco3)CC2)cc1` [Example 389, (4Z)-4-[({4-[4-(2-Furylmethyl)piperazin-1-yl]phenyl}amino)methylene]-6-iodoisoquinoline-1,3(2H,4H)-dione], the concentration for half-maximal inhibition (IC50) in test [1] (setting [8]) was > 50 µM; in test [2] it was > 50 µM; in test [3] (three days), 29 µM; in test [4] it was 1.66 µM; in test [5], > 50 µM; in test [6] (three days), 23 µM. In addition, in test [7] (three days), the IC50 is > 50 µM.

Consider `O=C1NC(=O)c2ccc(I)cc2/C1=C/Nc1ccc(N2CCN(Cc3ccoc3)CC2)cc1` [Example 390, (4Z)-4-[({4-[4-(3-Furylmethyl)piperazin-1-yl]phenyl}amino)methylene]-6-iodoisoquinoline-1,3(2H,4H)-dione], for which the IC50 was > 50 µM in test [1] (setting [9]); 19.3 µM in test [2]; 22 µM in test [3] (3 days); 0.88 µM in test [4]; 1.45 µM in test [5]; 17 µM in test [6] (3 days). Also, the IC50 in test [7] (3 days) is > 50 µM.

For `O=C1NC(=O)c2ccc(I)cc2/C1=C/Nc1ccc(N2CCN(CC3CC3)CC2)cc1` [Example 391, (4Z)-4-[({4-[4-(Cyclopropylmethyl)piperazin-1-yl]phenyl}amino)methylene]-6-iodoisoquinoline-1,3(2H,4H)-dione], the IC50 in test [1] (setting [9]) is 3 µM; in test [2], > 50 µM; in test [3] (3 days), 2.6 µM; in test [4], 0.5 µM; in test [5], > 50 µM; in test [6] (3 days) it was 2.4 µM. Further, the IC50 in test [7] (3 days) came to 7.3 µM.

For the compound `O=C1NC(=O)c2ccc(I)cc2/C1=C/Nc1ccc(N2CCN(C3CCC3)CC2)cc1` [Example 392, (4Z)-4-({[4-(4-Cyclobutylpiperazin-1-yl)phenyl]amino}methylene)-6-iodoisoquinoline-1,3(2H,4H)-dione], the IC50 in test [1] (setting [9]) is 3.8 µM; in test [2], 33.2 µM; in test [3] (3 days) it was 4.2 µM; in test [4] it was 0.69 µM; in test [5], > 50 µM; in test [6] (3 days), 2.5 µM. In addition, the IC50 in test [7] (3 days) is 4.8 µM.

On to `CCN1CCN(c2ccc(N/C=C3\C(=O)NC(=O)c4ccc(I)cc43)cc2)CC1` [Example 393, (4Z)-4-({[4-(4-Ethylpiperazin-1-yl)phenyl]amino}methylene)-6-iodoisoquinoline-1,3(2H,4H)-dione], for which the IC50 in test [1] (setting [9]) was 5.9 µM; in test [2] it was > 50 µM; in test [3] (3 days), 2.7 µM; in test [4], 0.47 µM; in test [5] it was > 50 µM; in test [6] (3 days), 2.8 µM. Moreover, in test [7] (3 days), the IC50 came out at 6.8 µM.

`CN1CCN(c2ccc(N/C=C3\C(=O)NC(=O)c4ccc(-c5ccsc5)cc43)cn2)CC1` [Example 396, (4Z)-4-({[6-(4-Methylpiperazin-1-yl)pyridin-3-yl]amino}methylene)-6-thien-3-ylisoquinoline-1,3(2H,4H)-dione]: the IC50 in test [1] (setting [9]) was 2.8 µM; in test [2], > 50 µM; in test [3] (3 days), 3.8 µM; in test [4] it was 0.02 µM; in test [5], > 50 µM; in test [6] (3 days), 1.4 µM. For the same compound, the IC50 in test [7] (3 days) was determined as 3.1 µM.

As for `COC1CCN(Cc2ccc(N/C=C3\C(=O)NC(=O)c4ccc(Br)cc43)cc2)CC1` [Example 397, (4Z)-6-Bromo-4-[({4-[(4-methoxypiperidin-1-yl)methyl]phenyl}amino)methylene]isoquinoline-1,3(2H,4H)-dione], the IC50 in test [1] (setting [9]) is 6.18 µM; in test [2], > 50 µM; in test [3] (3 days) it was 3.6 µM; in test [4], 0.19 µM; in test [5] it was > 50 µM; in test [6] (3 days), 2.8 µM. Besides, the IC50 in test [7] (3 days) was found to be 4.3 µM.

On to `CC(CO)N1CCN(c2ccc(N/C=C3\C(=O)NC(=O)c4ccc(I)cc43)cc2)CC1` (stereo not drawn) [Example 398, (4Z)-4-[({4-[4-(2-Hydroxy-1-methylethyl)piperazin-1-yl]phenyl}amino)methylene]-6-iodoisoquinoline-1,3(2H,4H)-dione], for which the IC50 is 6.19 µM in test [1] (setting [9]); > 50 µM in test [2]; 4.4 µM in test [3] (3 days); 0.18 µM in test [4]; 21.6 µM in test [5]; 2.3 µM in test [6] (3 days). For the same compound, the IC50 in test [7] (3 days) stood at 6.3 µM.

As to `COCC(C)N1CCN(c2ccc(N/C=C3\C(=O)NC(=O)c4ccc(I)cc43)cc2)CC1` (stereo not drawn) [Example 399, (4Z)-6-Iodo-4-[({4-[4-(2-methoxy-1-methylethyl)piperazin-1-yl]phenyl}amino)methylene]isoquinoline-1,3(2H,4H)-dione], the IC50 is 7.57 µM in test [1] (setting [9]); > 50 µM in test [2]; 5.4 µM in test [3] (3 days); 0.34 µM in test [4]; > 50 µM in test [5]; 3 µM in test [6] (3 days). Further, the IC50 in test [7] (3 days) is 7 µM.

Turning to `CC(CN(C)C)N1CCN(c2ccc(N/C=C3\C(=O)NC(=O)c4ccc(I)cc43)cc2)CC1` (stereo not drawn) [Example 400, (4Z)-4-{[(4-{4-[2-(Dimethylamino)-1-methylethyl]piperazin-1-yl}phenyl)amino]methylene}-6-iodoisoquinoline-1,3(2H,4H)-dione], the IC50 in test [1] (setting [9]) was 9.33 µM; in test [2] it was > 50 µM; in test [3] (3 days) it was 8.7 µM; in test [4] it was 0.34 µM; in test [5], > 50 µM; in test [6] (3 days) it was 2.9 µM. Further, in test [7] (3 days), the IC50 is 8.6 µM.

With `O=C1NC(=O)c2ccc(I)cc2/C1=C/Nc1ccc(N2CCN(CCO)CC2)cc1` [Example 401, (4Z)-4-[({4-[4-(2-Hydroxyethyl)piperazin-1-yl]phenyl}amino)methylene]-6-iodoisoquinoline-1,3(2H,4H)-dione], the IC50 was 4.45 µM in test [1] (setting [9]); > 50 µM in test [2]; 5.1 µM in test [3] (3 days); 0.47 µM in test [4]; 23.1 µM in test [5]; 2.6 µM in test [6] (3 days). Moreover, in test [7] (3 days), the concentration for half-maximal inhibition (IC50) was 6.7 µM.

The values above are taken from patent publication US7713994B2 (Wyeth LLC, priority 2005, dated 2010).
